# Experiments:
# [1] = system: HELA cell line; assay: Clonogenic cell survival assay, HELA; format: cell-based, human
# Method: (§1) TAXOL (paclitaxel) is a powerful cytotoxic agent but is very difficult to use because it is almost insoluble in water or blood plasma. For in vivo or in vitro use, it is generally dissolved in dimethyl sulphoxide (DMSO) or in a complex commercial pharmaceutical preparation. […] The TAXOL (paclitaxel) concentration was varied over the range of 1 to 8nM. These carrier solutions were labeled “polymer” series. Similarly, the same range of TAXOL (paclitaxel) solution concentrations was prepared in neat dimethyl sulphoxide as solvent; these carrier solutions were labeled “DMSO” series. Finally, a series of commercially available pharmaceutical preparations was used, which contained TAXOL (paclitaxel) in the concentration range of 1 to 8 nM; these carrier solutions were labeled “commercial” series. […] The four series of solutions were compared for their cytotoxic action by a clonogenic cell survival assay using three human in vitro cell lines, viz., HELA (originally explanted from cancer of the cervix), HRT-18 (originally explanted from […]) and MGHU-1 (originally explanted from a bladder cancer).
# [2] = system: HRT-18 cell line; assay: Clonogenic cell survival assay, HRT-18; format: cell-based, human; conditions: HRT-18, clonogenic cell survival
# Method: as §1
# [3] = system: MGHU-1 cell line; assay: Clonogenic cell survival assay, MGHU-1; format: cell-based, human; conditions: MGHU-1, clonogenic cell survival
# Method: as §1
# [4] = system: cancer cells (Molt 4)
# Method: Typically, for a porphyrin sensitizer, the concentration was determined by ultraviolet/visible measurement of absorption at the Soret wavelength near 420 nm.
# The cell growth medium was prepared in three varieties. Each variety contained the nutrients required for cell growth. One variety contained neither sensitizer nor polymer, a second contained polymer but no sensitizer and a third contained both polymer and sensitizer.
# The resulting solution was adjusted to pH 7.2 by careful addition of aqueous sodium hydroxide solution (5 M) and finally once more filtered through a 0.22 μm filter. The resulting solution was used as the growth medium containing both sensitizer and polymer in the following experiments. A growth medium containing only polymer was prepared as here but omitting the sensitizer, viz, instead of the sensitizer solution (85 mL), an equal volume of distilled water containing the same amount of polymer but no sensitizer was added. […]
# For each growth medium, 10 mL of a suspension containing 10^7-10^8 cells/mL were centrifuged and the cells were resuspended in one of the growth media described above (45mL) to give three cell preparations: A, containing sensitizer plus polymer; B, containing neither sensitizer nor polymer; C, containing polymer but no sensitizer. […] Its amount could be determined by visible spectroscopy as described above. […]
Structure (SMILES),cytotoxic action (in words) [1],cytotoxic action (in words) [2],cytotoxic action (in words) [3],cell growth (cell count) [4]
COc1cc(NS(C)(=O)=O)ccc1Nc1c2ccccc2nc2ccccc12 [amsacrine],effective,effective,effective,–
"C1=Cc2nc1c(-c1ccccc1)c1ccc([nH]1)c(-c1ccccc1)c1nc(c(-c3ccccc3)c3ccc([nH]3)c2-c2ccccc2)C=C1 [sensitizer, 5,10,15,20 tetrakis phenyl porphyrin]",–,–,–,not inhibited

# From US6702995B1, “Delivery system” (TheRyte, Ltd., priority 1997, dated 2004)
